Each compound was assayed on PKC mediated IL-2 production (assay: IL-2 ELISA, human primary T cell, anti CD3+CD28+). Settings: Homo sapiens, T-cell, 24 h, human primary T cells stimulated with αCD3 and αCD28, 24 hours.
Type: cell-based
Outline: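 IL-2 was quantified by ELISA in 24 h supernatants from primary human T cells given a 1 h compound pre-treatment at 37° C. These cells had been expanded from blood mononuclear cells on αCD3/αCD28 with IL-2, and the IL-2 was removed by washing. Stimulation used plate-bound αCD3 ([…]) plus αCD28 (5 μg/ml); the counter assay used PMA (0.5 ng/ml) with ionomycin (0.1 uM) instead.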

| Structure (SMILES) | EC50 [nM] |
| --- | --- |
| Cc1ccc(Nc2ncc(F)c(N[C@@H]3C[C@@H]4CCCN4C(C)(C)C3)n2)cc1-n1nnnc1S(C)(=O)=O [Compound 286, 5-fluoro-N4-((7R,8aS)-octahydro-5,5-dimethylindolizin-7-yl)-N2-(4-methyl-3-(5-(methylsulfonyl)-1H-tetrazol-1-yl)phenyl)pyrimidine-2,4-diamine] | > 10000 |
| Cc1nnnn1-c1cc(Nc2ncc(F)c(NC3CC(C)(C)N4CCCC4C3C)n2)ccc1F (stereo not shown) [Compound 70, 5-Fluoro-N2-(4-fluoro-3-(5-methyl-1H-tetrazol-1-yl)phenyl)-N4-(octahydro-5,5,8-trimethylindolizin-7-yl)pyrimidine-2,4-diamine] | 1000 to 10000 |
| CC1(C)Oc2ccc(Nc3ncc(F)c(N[C@@H]4C[C@@H]5CCCN5C(C)(C)C4)n3)cc2-n2c1nn(CCO)c2=O [Compound 268, 5-fluoro-N2-(1H-2,4-dihydron-2-(2-hydroxyethyl)-4,4-dimethyl-[1,2,4]triazolo[3,4-c][1,4]benzoxazin-1-one-8-yl)-N4-((7R,8aS)-octahydro-5,5-dimethylindolizin-7-yl)pyrimidine-2,4-diamine] | 1000 to 10000 |
| Cn1nnn(-c2cc(Nc3ncc(F)c(N[C@@H]4C[C@@H]5CCCN5C(C)(C)C4)n3)ccc2N2CC(O)C2)c1=O [Compound 328, 1-(5-(4-((7R,8aS)-octahydro-5,5-dimethylindolizin-7-ylamino)-5-fluoropyrimidin-2-ylamino)-2-(3-hydroxyazetidin-1-yl)phenyl)-4-methyl-1H-tetrazol-5(4H)-one] | 1000 to 10000 |
| CC1(C)C[C@H](Nc2nc(Nc3ccc(OCC4COC4)c(C#N)c3)ncc2F)C[C@@H]2CCCN21 [Compound 175, 5-(4-((7R,8aS)-5,5-dimethyloctahydroindolizin-7-ylamino)-5-fluoropyrimidin-2-ylamino)-2-(oxetan-3-ylmethoxy)benzonitrile] | 500 to 1000 |
| Cn1nnn(-c2cc(Nc3ncc(C#N)c(N[C@@H]4C[C@@H]5CCCN5C(C)(C)C4)n3)c(F)cc2OC(C)(C)CO)c1=O [Compound 84, 4-((7R,8aS)-octahydro-5,5-dimethylindolizin-7-ylamino)-2-(4-(1-hydroxy-2-methylpropan-2-yloxy)-2-fluoro-5-(4,5-dihydro-4-methyl-5-oxotetrazol-1-yl)phenylamino)pyrimidine-5-carbonitrile] | 100 to 500 |
| COc1ccc(Nc2ncc(F)c(N[C@@H]3C[C@@H]4CCCN4C(C)(C)C3)n2)cc1-n1nnn(C)c1=O [Compound 278, 1-(5-(4-((7R,8aS)-octahydro-5,5-dimethylindolizin-7-ylamino)-5-fluoropyrimidin-2-ylamino)-2-methoxyphenyl)-4-methyl-1H-tetrazol-5(4H)-one] | < 100 |
| Cc1nnnn1-c1cc(Nc2ncc(F)c(N[C@@H]3C[C@@H]4CCCN4C(C)(C)C3)n2)c(F)cc1O [Compound 252, 4-(4-((7R,8aS)-octahydro-5,5-dimethylindolizin-7-ylamino)-5-fluoropyrimidin-2-ylamino)-5-fluoro-2-(5-methyl-1H-tetrazol-1-yl)phenol] | 1000 to 10000 |
| CC1(C)C[C@H](Nc2nc(Nc3ccc(OCC(O)CO)c(C#N)c3)ncc2F)C[C@@H]2CCCN21 (stereo partly drawn) [Compound 212, 2-(2,3-dihydroxypropoxy)-5-((4-(((7R,8aS)-5,5-dimethyloctahydroindolizin-7-yl)amino)-5-fluoropyrimidin-2-yl)amino)benzonitrile] | 1000 to 10000 |
| Cn1nc2n(c1=O)-c1cc(Nc3ncc(F)c(N[C@@H]4C[C@@H]5CCCN5C(C)(C)C4)n3)ccc1OC2 [Compound 291, 5-fluoro-N2-(1H-2,4-dihydron-2-methyl-[1,2,4]triazolo[3,4-c][1,4]benzoxazin-1-one-8-yl)-N4-((7R,8aS)-octahydro-5,5-dimethylindolizin-7-yl)pyrimidine-2,4-diamine] | 100 to 500 |
| CC1(C)C[C@H](Nc2nc(Nc3ccc(O[C@H]4CCNC[C@@H]4F)c(Cl)c3)ncc2F)C[C@@H]2CCCN21 [Compound 123] | < 100 |
| CC1(C)C[C@H](Nc2nc(Nc3ccc(OC4CCN(C5COC5)CC4)c(C(F)(F)F)c3)ncc2F)C[C@@H]2CCCN21 [Compound 120] | 100 to 500 |
| COc1cc(Nc2ncc(F)c(N[C@@H]3C[C@@H]4CCCN4C(C)(C)C3)n2)cc(OC)c1 [Compound 161, N2-(3,5-dimethoxyphenyl)-N4-((7R,8aS)-5,5-dimethyloctahydroindolizin-7-yl)-5-fluoropyrimidine-2,4-diamine] | 500 to 1000 |
| Cn1nnn(-c2cc(Nc3ncc(F)c(N[C@@H]4C[C@@H]5CCCN5C(C)(C)C4)n3)c(F)cc2OCCNC(=O)OC(C)(C)C)c1=O [Compound 226, tert-butyl (2-(4-((4-(((7R,8aS)-5,5-dimethyloctahydroindolizin-7-yl)amino)-5-fluoropyrimidin-2-yl)amino)-5-fluoro-2-(4-methyl-5-oxo-4,5-dihydro-1H-tetrazol-1-yl)phenoxy)ethyl)carbamate] | 100 to 500 |
| Cn1nnn(-c2cc(Nc3ncc(F)c(N[C@@H]4C[C@@H]5CCCN5C(C)(C)C4)n3)c(F)cc2O[C@H]2CCOC2)c1=O [Compound 110, 1-(5-((4-(((7R,8aS)-5,5-dimethyloctahydroindolizin-7-yl)amino)-5-fluoropyrimidin-2-yl)amino)-4-fluoro-2-(((S)-tetrahydrofuran-3-yl)oxy)phenyl)-4-methyl-1,4-dihydro-5H-tetrazol-5-one] | 100 to 500 |
| Cc1ccc(Nc2ncc(F)c(N[C@@H]3C[C@@H]4CCCN4C(C)(C)C3)n2)cc1-n1nnn(C)c1=O [Compound 273, 1-(5-(4-((7R,8aS)-octahydro-5,5-dimethylindolizin-7-ylamino)-5-fluoropyrimidin-2-ylamino)-2-methylphenyl)-4-methyl-1H-tetrazol-5(4H)-one] | < 100 |
| Cc1ccc(Nc2ncc(F)c(N[C@@H]3C[C@@H]4CCCN4C(C)(C)C3)n2)cc1-n1nnnc1SCCO [Compound 282, 2-(1-(5-(4-((7R,8aS)-octahydro-5,5-dimethylindolizin-7-ylamino)-5-fluoropyrimidin-2-ylamino)-2-methylphenyl)-1H-tetrazol-5-ylthio)ethanol] | < 100 |
| CC1(C)C[C@H](Nc2nc(Nc3ccc(OCC4CCOCC4)c(C#N)c3)ncc2F)C[C@@H]2CCCN21 [Compound 178, 5-(4-((7R,8aS)-5,5-dimethyloctahydroindolizin-7-ylamino)-5-fluoropyrimidin-2-ylamino)-2-((tetrahydro-2H-pyran-4-yl)methoxy)benzonitrile] | 100 to 500 |
| Cn1nnn(-c2cc(Nc3ncc(F)c(NC4CC5CCCN5C(C)(C)C4)n3)ccc2OC2CCOCC2)c1=O (stereo not shown) [Compound 51, 1-(5-(5-fluoro-4-(octahydro-5,5-dimethylindolizin-7-ylamino)pyrimidin-2-ylamino)-2-(tetrahydro-2H-pyran-4-yloxy)phenyl)-4-methyl-1H-tetrazol-5(4H)-one] | 100 to 500 |
| CO[C@@H](C)COc1cc(F)c(Nc2ncc(Cl)c(N(C[C@H](C)OC)[C@@H]3C[C@@H]4CCCN4C(C)(C)C3)n2)cc1-n1nnn(C)c1=O [Compound 239, 1-(5-((5-chloro-4-(((7R,8aS)-5,5-dimethyloctahydroindolizin-7-yl)((S)-2-methoxypropyl)amino)pyrimidin-2-yl)amino)-4-fluoro-2-((S)-2-methoxypropoxy)phenyl)-4-methyl-1,4-dihydro-5H-tetrazol-5-one] | > 10000 |
| Cn1nnn(-c2cc(Nc3ncc(F)c(NC4CCN5CCCC5C4)n3)c(F)cc2C2CC2)c1=O (racemic) [Compound 27, (±)-1-(5-(5-fluoro-4-(octahydroindolizin-7-ylamino)pyrimidin-2-ylamino)-2-cyclopropyl-4-fluorophenyl)-4-methyl-1H-tetrazol-5(4H)one] | 1000 to 10000 |
| Cc1ccc(Nc2ncc(F)c(N[C@@H]3C[C@@H]4CCCN4C(C)(C)C3)n2)cc1-n1nnn(CC(C)(C)O)c1=O [Compound 289, 1-(5-(4-((7R,8aS)-octahydro-5,5-dimethylindolizin-7-ylamino)-5-fluoropyrimidin-2-ylamino)-2-methylphenyl)-4-(2-hydroxy-2-methylpropyl)-1H-tetrazol-5(4H)-one] | < 100 |
| Cn1nnn(-c2cc(Nc3ncc(C#N)c(N[C@@H]4C[C@@H]5CCCN5C(C)(C)C4)n3)c(F)cc2OC2CCOCC2)c1=O [Compound 115, 4-(((7R,8aS)-5,5-dimethyloctahydroindolizin-7-yl)amino)-2-((2-fluoro-5-(4-methyl-5-oxo-4,5-dihydro-1H-tetrazol-1-yl)-4-((tetrahydro-2H-pyran-4-yl)oxy)phenyl)amino)pyrimidine-5-carbonitrile] | 500 to 1000 |

Same assay, conditions: human primary T cells stimulated with αCD3 and αCD28, 24 hours

| Structure (SMILES) | EC50 [nM] |
| --- | --- |
| CC1C(Nc2nc(Nc3cc(N(C)C(=O)N(C)C)c(C4CC4)cc3F)ncc2F)CC(C)(C)N2CCCC12 (stereo not shown) [Compound 74] | 100 to 500 |
| CC1(C)Oc2ccc(Nc3ncc(F)c(N[C@@H]4C[C@@H]5CCCN5C(C)(C)C4)n3)cc2-n2nnnc21 [Compound 4, N2-(4,4-dimethyl-4H-benzo[b]tetrazolo[1,5-d][1,4]oxazin-8-yl)-5-fluoro-N4-(octahydro-5,5-dimethylindolizin-7-amine)pyrimidine-2,4-diamine] | 1000 to 10000 |
| CC1C(Nc2nc(Nc3cc(OC(F)F)c(C4CC4)cc3F)ncc2F)CC(C)(C)N2CCCC12 (stereo not shown) [Compound 75] | 100 to 500 |
| CC(C)N1CCC(Oc2ccc(Nc3ncc(F)c(N[C@H]4C[C@H]5CCCN5C(C)(C)C4)n3)cc2OC(F)F)CC1 (single isomer, unassigned) [Compound 7, (R/S, S/R, R/R, S/S)-N^2-(4-(1-isopropylpiperidin-4-yloxy)-3-(difluoromethoxy)phenyl)-5-fluoro-N^4-(octahydro-5,5-dimethylindolizin-7-yl)pyrimidine-2,4-diamine] | 1000 to 10000 |
| CC1(C)Oc2ccc(Nc3ncc(F)c(N[C@H]4C[C@@H]5CCCN5C(C)(C)C4)n3)cc2-n2nnnc21 (single isomer, unassigned) [Compound 3, N2-(4,4-dimethyl-4H-benzo[b]tetrazolo[1,5-d][1,4]oxazin-8-yl)-5-fluoro-N4-(octahydro-5,5-dimethylindolizin-7-amine)pyrimidine-2,4-diamine] | 500 to 1000 |
